Results on one compound are retold here after patent publication US20110076318A1, “RETINOID-CONTAINING SUSTAINED RELEASE INTRAOCULAR IMPLANTS AND RELATED MATTERS” (Allergan, Inc., priority 2004, published 2011).

Where two headings read alike, the source gives them in different places. Some results are limits rather than exact numbers.

A short description of series [1]: Tissue-to-plasma distribution after daily topical 14C-tazarotene. The series is classed as in vivo. The note with it: rat. As for the experimental part:
FIG. 11 is a graph illustrating tissue-to-plasma concentration ratios of after twenty-one days of daily topical application of 14C-tazarotene to the skin of rats.
(§1) Oral delivery of 1.1 mg and 6 mg multiple doses led to 28.9 ng/mL and 227 ng/ml peak levels with a 2.56 ng/mL trough. This corresponds to a maximum possible 4 ng/mL ocular level for the highest dose. FIG. 11 depicts the tissue distribution of tazarotenic acid. The eyes show a 2% tissue/plasma ration in the rat. It should be noted that tazarotenic acid is 99% protein bound and distribution is limited to unbound drug.

The nature of series [2]: Ocular disposition of tazarotene and tazarotenic acid after intravitreal and subconjunctival dosing. In kind it is in vivo, albino rabbits. The procedure:
General disposition of intraocular and subconjunctivally administered tazarotene and tazarotenic acid was assessed. Briefly, albino rabbits were dosed via intraocular injection with 1.25 μg of tazarotene or tazarotenic acid. Injection was made mid-vitreous. After dosing the vitreous, retina and aqueous humor concentrations of tazarotene and tazarotenic acid were determined at 0.5, 1, 2, 4, 8, 12 and 24 hours post dosing. […] Additionally, the tazarotenic acid concentrations asymptotically approach approximately 10 ng/mL.
Tazarotene was also dosed in the subconjunctival space. Three dosage forms were evaluated: A tazarotene aqueous suspension (1 mg), a tazarotene subconjunctival olive oil solution (1 mg), and an tazarotene poly (lactide-co-glycolide) microsphere suspension. After dosing, the vitreous, retina and aqueous humor concentrations of tazarotene and tazarotenic acid were determined at 2, 8, 24, 48, 96, 168 and 336 hours post dosing. It was observed that subconjunctival administration achieved significant levels of tazarotene and tazarotenic acid in the ocular tissues.
Briefly, albino rabbits were dosed via intraocular injection with 1.25 μg of tazarotene or tazarotenic acid. Injection was made mid-vitreous. After dosing the vitreous, retina and aqueous humor concentrations of tazarotene and tazarotenic acid were determined at 0.5, 1, 2, 4, 8, 12 and 24 hours post dosing. […]

In series [3] the test system is PVR induced by human RPE cells. Description: PVR model with retinoid implants, Fastenberg scale. The note with it: at 28 days; 10% loaded PLA/PLGA implants, intravitreal. The series is classed as in vivo. From the text: PLA and PLGA implants 1.5 mm in diameter and 3 mm in length were fabricated by extrusion of the polymer drug blend. Tazarotenic acid (the free acid of Tazarotene) Tazarotene and 13-cis-retinoic acid were loaded into the implants at 10% concentrations. Briefly, pigmented rabbits were vitrectomized followed by intravitreal injection of 500,000 human RPE cells. After injection of the RPE cells the retinoid implants were placed into the vitreous and anchored to the sclera with the suture used to close the sclerotomy.
The eyes were examined weekly for 4 weeks. Severity of PVR was graded based on the Fastenberg scale. At 4 weeks gross pathology and limited histopathology were conducted.

Series [4] in a line: Plasma concentrations after topical and oral dosing of tazarotene. In kind it is in vivo, patients. The note with it: for Cmax: human; for Cmax / TAZAROTENIC ACID Ctrough: plasma. The procedure:
[…] For the most part tazarotene is not observed in the plasma after topical or oral administration. Facile hydrolysis by pre-systemic metabolism rapidly generates the free acid. […] It is important to note that these are plasma concentrations and the eye plasma distribution ratio is 0.02. Over 90% of all patients in the phase 3 clinical trials had concentrations of the parent compound, tazarotene, <1 ng/mL with the highest being 6 ng/mL.
as §1

Series [5] is described as follows: Protein binding of tazarotenic acid. In kind it is in vitro ADME.

Regarding `CC1(C)CCSc2ccc(C#Cc3ccc(C(=O)O)cn3)cc21` [Tazarotenic Acid, 4,4-dimethyl-6-[2′-(5″-carboxy-2″-pyridyl)-ethynyl]-thiochroman], the eyes tissue/plasma ratio in series [1] (FIG. 11) is given as 2%. Besides, in series [1] (eye, topical, read-out: eye plasma distribution ratio), the Kp at 21 days was found to be 0.02. For the same compound, in series [2] (after intraocular injection of 1.25 μg tazarotene), the “maximal vitreous concentration of tazarotenic acid (asymptote)” value is given as “approximately 10 ng/mL”. The half-life in series [2] (albino, rabbit, vitreous, other: intraocular injection, mid-vitreous, 1.25 ug, midvitreous dosing of 1.25 μg tazarotenic acid, read-out: vitreous elimination half-life (converted)) is 4.24 h. Moreover, the “eyes progressed to traction retinal detachment” value in series [3] came to 12%. For the same compound, in series [4] (highest oral dose (6 mg)), the “maximum possible ocular level” value was at most 4 ng/mL. The Cmax in series [4] (po, 1.1 mg/Day, Oral 1.1 mg/Day, read-out: TAZAROTENIC ACID Cmax) stood at 28.9 ng/mL; in series [4] (po, 3 mg/Day, Oral 3.0 mg/Day, read-out: TAZAROTENIC ACID Cmax) it was 81.6 ng/mL; in series [4] (po, 6 mg/Day, Oral 6.0 mg/Day, read-out: TAZAROTENIC ACID Cmax), 227 ng/mL; in series [4] (topical or ocular, 0.1 % gel, Topical Gel 0.1% 2% BSA, read-out: TAZAROTENIC ACID Cmax) it was 0.241 ng/mL; in series [4] (topical or ocular, 0.1 % gel, Topical Gel 0.1% 7% BSA, read-out: TAZAROTENIC ACID Cmax), 0.83 ng/mL; in series [4] (topical or ocular, 0.1 % gel, Topical Gel 0.1% 15% BSA, read-out: TAZAROTENIC ACID Cmax) it was 4.8 ng/mL. The Cmax in series [4] (topical or ocular, 0.1 % gel, Topical Gel 0.1% 20% BSA, read-out: TAZAROTENIC ACID Cmax) is 12 ng/mL; in series [4] (topical or ocular, 0.1 % gel, Topical Gel 0.1% Phase 3, in 90%, read-out: TAZAROTENIC ACID Cmax) it was below 1 ng/mL; in series [4] (topical or ocular, range over topical studies, read-out: Tazarotenic acid plasma concentrations (Cmax) from topical administration), 0.25 to 12 ng/mL. Also, the “TAZAROTENIC ACID Ctrough” value in series [4] (Oral 6.0 mg/Day, listed as TAZAROTENIC ACID) was “Ctrough 2.56 ng/mL”; in series [4] (Oral 6.0 mg/Day, listed as tazarotenic acid) it was 2.56 ng/mL. Further, the protein bound in series [5] is given as 99%.

By half-life is commonly meant the time in which the quantity being followed falls by half.
